Values quoted from earlier work as cited in PMC7400577 (Scientific Reports, 2020).

Biological target: T1, hGAT2 (Homo sapiens, UniProt Q9NSD5)
T1 construct: expressed in transfected cells
T1 sequence (Q9NSD5 1-602): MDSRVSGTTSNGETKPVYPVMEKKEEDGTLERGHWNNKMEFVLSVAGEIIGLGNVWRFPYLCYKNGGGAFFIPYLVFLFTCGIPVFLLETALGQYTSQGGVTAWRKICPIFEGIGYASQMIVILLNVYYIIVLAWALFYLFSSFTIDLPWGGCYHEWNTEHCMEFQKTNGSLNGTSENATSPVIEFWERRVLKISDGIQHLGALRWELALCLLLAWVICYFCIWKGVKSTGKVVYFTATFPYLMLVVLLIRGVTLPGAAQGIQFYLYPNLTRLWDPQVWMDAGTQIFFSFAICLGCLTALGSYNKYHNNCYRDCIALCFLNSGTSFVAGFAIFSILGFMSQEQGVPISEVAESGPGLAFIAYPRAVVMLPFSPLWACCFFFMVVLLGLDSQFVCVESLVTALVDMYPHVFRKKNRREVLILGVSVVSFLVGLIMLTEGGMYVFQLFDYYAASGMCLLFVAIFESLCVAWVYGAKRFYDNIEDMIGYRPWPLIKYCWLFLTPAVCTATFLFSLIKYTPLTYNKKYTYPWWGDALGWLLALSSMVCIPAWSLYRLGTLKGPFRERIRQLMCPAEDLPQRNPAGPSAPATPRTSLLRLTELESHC
Settings: [3H]GABA uptake, recombinant hGAT2; adapted from Al-Khawaja et al.; cited from earlier work

NC1=NCC(C(=O)O)CN1 (centres unmarked) [ATPCA, 2-amino-1,4,5,6-tetrahydropyrimidine-5-carboxylic acid, reference compound]
IC50: 41 µM
pIC50 ± S.E.M. hGAT2: 4.39 ± 0.09
